Measured values reported in patent US20240279232A1, “USE OF SUBSTITUTED 5-(4-METHYL-6-PHENYL-4H-BENZO[F]IMIDAZO[1,5-A][1,4] DIAZEPIN-3-YL)-1,2,4-O[…] THE TREATMENT OF INFLAMMATORY CONDITIONS” (priority 2021, published 2024).

Assays:
[1] = test system: Mouse microglia; assay: NO production (Griess assay), LPS/IFNγ-activated mouse microglia; assay type: cell-based; conditions: for inhibition at 10 µM / inhibition at 50 µM: Mus musculus, Microglia, 24 h
[2] = test system: RAW macrophages; assay: Cell viability (CellTiter-Glo), RAW macrophages; assay type: cell-based, mouse; conditions: for Cell viability (%) RAW macrophages 50 μM: CellTiter-Glo; for toxicity at 50 μM (in words): macrophages
[3] = test system: Mouse microglia; assay: Cell viability (CellTiter-Glo), mouse microglia; assay type: cell-based; conditions: 50 μM; for Cell viability (%) Mouse microglia 50 μM: CellTiter-Glo; for toxicity at 50 μM (in words): microglia
How it was run: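 Mouse microglia (1×10^6 cells/mL) activated with 50 ng/ml LPS plus 150 U/mL IFNγ, incubated with compounds ~24 h at 37° C. Viability of remaining cells read by CellTiter-Glo luminescence after supernatant removal for Griess NO assay; […].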

[4] = test system: HEPG2; assay: Viability assay (CellTiter-Glo), HEPG2; assay type: cell-based, human; conditions: for Cell viability (%) HEPG2 120 μM: CellTiter-Glo; for toxicity at 120 μM (in words): HepG2, 120 μM
[5] = test system: Swiss Webster mice; assay: Rotarod test; conditions: for sensorimotor deficits on the rotarod: p.o. at 4-fold the effective dose in the formalin test
[6] = molecular target: 5-HT2C (Homo sapiens, UniProt P28335); assay: PDSP primary binding 5-HT2C; conditions: PDSP primary screening
Sequence of 5-HT2C (P28335 33-458, species assumed): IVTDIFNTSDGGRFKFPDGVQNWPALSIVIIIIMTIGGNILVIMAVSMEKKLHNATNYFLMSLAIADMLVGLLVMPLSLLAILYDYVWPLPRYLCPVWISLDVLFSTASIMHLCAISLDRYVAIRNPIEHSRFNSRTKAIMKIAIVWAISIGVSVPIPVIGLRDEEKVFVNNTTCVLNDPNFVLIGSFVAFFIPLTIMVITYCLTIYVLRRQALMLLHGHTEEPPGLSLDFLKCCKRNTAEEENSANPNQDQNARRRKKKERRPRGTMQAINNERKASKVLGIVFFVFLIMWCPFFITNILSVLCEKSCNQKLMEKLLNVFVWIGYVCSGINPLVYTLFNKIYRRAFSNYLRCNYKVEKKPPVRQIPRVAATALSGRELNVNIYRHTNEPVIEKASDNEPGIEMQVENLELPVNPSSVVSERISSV
Description: (§1) Because reduction of NO could not be reversed by GABAAR antagonists, the possible binding of MP-IV-010 to other cellular receptors was evaluated in collaboration with the NIMH Psychoactive Drug Screening Program.
(§2) Psychoactive Drug Screening Program. Detailed protocols for the primary and secondary radioligand binding assays can be found in the National Institute of Mental Health's Psychoactive Drug Screening Program (NIMH PDSP) Assay Protocol Book. Briefly, primary and secondary radioligand binding assays are carried out in a final of volume of 125 μL per well in appropriate binding buffer. The radioactive ligand concentration is close to the Kd. Total binding and nonspecific binding are determined in the absence and presence of 10 μM of appropriate reference compound, respectively. In brief, plates are usually incubated at room temperature and in the dark for 90 min. Reactions are stopped by vacuum filtration onto 0.3% polyethyleneimine (PEI) soaked 96-well filter mats using a 96-well Filtermate harvester, followed by three washes with cold PBS buffer. Scintillation cocktail is then melted onto the microwave-dried filters on a hot plate and radioactivity counted in a Microbeta counter. The data (n=6) were analyzed by nonlinear regression.

[7] = molecular target: DAT (Homo sapiens, UniProt Q01959); assay: PDSP primary binding DAT; conditions: PDSP primary screening
Sequence of DAT (Q01959 whole entry, species assumed): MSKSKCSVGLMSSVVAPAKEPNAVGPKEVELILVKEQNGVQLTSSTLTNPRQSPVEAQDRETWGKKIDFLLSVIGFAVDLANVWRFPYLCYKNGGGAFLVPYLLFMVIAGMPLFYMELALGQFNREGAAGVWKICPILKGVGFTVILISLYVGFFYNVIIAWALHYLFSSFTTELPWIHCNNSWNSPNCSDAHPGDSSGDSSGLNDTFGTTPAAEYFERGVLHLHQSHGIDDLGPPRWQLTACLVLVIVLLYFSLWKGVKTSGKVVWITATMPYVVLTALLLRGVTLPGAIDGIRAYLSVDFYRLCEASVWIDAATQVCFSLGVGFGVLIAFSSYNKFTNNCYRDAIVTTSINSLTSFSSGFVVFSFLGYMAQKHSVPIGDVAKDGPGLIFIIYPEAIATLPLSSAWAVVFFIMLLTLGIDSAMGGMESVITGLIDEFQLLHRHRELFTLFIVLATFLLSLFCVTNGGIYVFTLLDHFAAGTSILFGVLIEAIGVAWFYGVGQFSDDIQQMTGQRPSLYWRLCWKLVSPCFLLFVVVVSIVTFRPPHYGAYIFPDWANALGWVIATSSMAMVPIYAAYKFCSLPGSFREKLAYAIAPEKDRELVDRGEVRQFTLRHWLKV
Description: as §1, §2

[8] = test system: GABAA; assay: PDSP primary binding GABAA; conditions: PDSP primary screening
Description: as §1, §2

[9] = test system: Calcium Channel; assay: PDSP primary binding Calcium Channel; conditions: PDSP primary screening
Description: as §1, §2

[10] = molecular target: Beta2 (Homo sapiens, UniProt P07550); assay: PDSP primary binding Beta2; conditions: PDSP primary screening
Sequence of Beta2 (P07550 whole entry): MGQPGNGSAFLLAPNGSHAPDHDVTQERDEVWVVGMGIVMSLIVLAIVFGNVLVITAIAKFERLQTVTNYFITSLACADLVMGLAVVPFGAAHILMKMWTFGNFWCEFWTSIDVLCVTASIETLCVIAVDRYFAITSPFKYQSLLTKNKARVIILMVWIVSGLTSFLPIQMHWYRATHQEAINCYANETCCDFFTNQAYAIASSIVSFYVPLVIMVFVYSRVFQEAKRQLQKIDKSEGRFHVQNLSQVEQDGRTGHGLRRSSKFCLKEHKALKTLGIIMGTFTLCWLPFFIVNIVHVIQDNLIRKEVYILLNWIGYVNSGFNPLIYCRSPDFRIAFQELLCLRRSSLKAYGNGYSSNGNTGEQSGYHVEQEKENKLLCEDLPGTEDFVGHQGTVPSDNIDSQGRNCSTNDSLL
Description: as §1, §2

[11] = molecular target: M4 (Homo sapiens, UniProt P08173); assay: PDSP primary binding M4; conditions: PDSP primary screening
Sequence of M4 (P08173 whole entry): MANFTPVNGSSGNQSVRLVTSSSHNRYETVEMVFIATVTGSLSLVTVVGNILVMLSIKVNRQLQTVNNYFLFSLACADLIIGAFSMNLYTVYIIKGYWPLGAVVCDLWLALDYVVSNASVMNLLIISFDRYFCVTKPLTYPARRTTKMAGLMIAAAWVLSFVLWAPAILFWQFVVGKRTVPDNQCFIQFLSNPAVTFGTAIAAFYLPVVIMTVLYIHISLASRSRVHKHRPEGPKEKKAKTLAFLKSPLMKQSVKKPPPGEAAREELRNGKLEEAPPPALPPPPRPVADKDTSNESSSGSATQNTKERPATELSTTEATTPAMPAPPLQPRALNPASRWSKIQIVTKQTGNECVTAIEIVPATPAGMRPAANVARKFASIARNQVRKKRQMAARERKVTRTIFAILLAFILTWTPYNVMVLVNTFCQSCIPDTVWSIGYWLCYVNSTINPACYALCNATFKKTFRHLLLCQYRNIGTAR
Description: as §1, §2

[12] = molecular target: Alpha1D (Homo sapiens, UniProt P25100); assay: PDSP primary binding Alpha1D; conditions: PDSP primary screening
Sequence of Alpha1D (P25100 whole entry): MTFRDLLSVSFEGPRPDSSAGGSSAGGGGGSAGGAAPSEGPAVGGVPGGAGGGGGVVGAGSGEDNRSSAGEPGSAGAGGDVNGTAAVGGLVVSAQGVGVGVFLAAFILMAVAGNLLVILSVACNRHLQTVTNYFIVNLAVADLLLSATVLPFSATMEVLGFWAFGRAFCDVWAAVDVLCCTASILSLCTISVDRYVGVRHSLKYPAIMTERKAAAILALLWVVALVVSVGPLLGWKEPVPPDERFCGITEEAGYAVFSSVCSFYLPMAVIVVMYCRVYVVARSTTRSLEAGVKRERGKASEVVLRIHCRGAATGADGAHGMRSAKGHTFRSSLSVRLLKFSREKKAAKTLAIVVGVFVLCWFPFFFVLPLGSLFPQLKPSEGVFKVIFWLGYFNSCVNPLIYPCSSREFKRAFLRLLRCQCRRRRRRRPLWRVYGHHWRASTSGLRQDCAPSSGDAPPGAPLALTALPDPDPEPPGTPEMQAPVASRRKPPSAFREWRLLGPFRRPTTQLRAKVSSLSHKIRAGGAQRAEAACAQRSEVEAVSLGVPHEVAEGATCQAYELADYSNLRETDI
Description: as §1, §2

CCOC(=O)c1ncn2c1[C@@H](C)N=C(c1ccccn1)c1cc(Br)ccc1-2 [GL-II-06]
inhibition at 10 µM [1]: 14 ± 3%
Cell viability (%) RAW macrophages 50 μM [2]: 100 ± 10%
Cell viability (%) Mouse microglia 50 μM [3]: 87 ± 13%
Cell viability (%) HEPG2 120 μM [4]: 89 ± 5%

C[C@H]1N=C(c2ccccn2)c2cc(Br)ccc2-n2cnc(C(=O)O)c21 [GL-II-51]
inhibition at 10 µM [1]: 9 ± 4%
Cell viability (%) RAW macrophages 50 μM [2]: 100 ± 3%
Cell viability (%) Mouse microglia 50 μM [3]: 95 ± 2%
Cell viability (%) HEPG2 120 μM [4]: 100 ± 16%

C[C@H]1N=C(c2ccccc2F)c2cc(Br)ccc2-n2cnc(-c3cnco3)c21 [GL-III-36]
inhibition at 10 µM [1]: 8 ± 5%
inhibition at 50 µM [1]: 41 ± 7%
Cell viability (%) RAW macrophages 50 μM [2]: 81 ± 5%
Cell viability (%) Mouse microglia 50 μM [3]: 97 ± 9%
Cell viability (%) HEPG2 120 μM [4]: 100 ± 9%

CCOC(=O)c1ncn2c1[C@@H](C)N=C(c1ccccc1F)c1cc(C3CC3)ccc1-2 [GL-III-42]
inhibition at 10 µM [1]: 55 ± 12%
Cell viability (%) RAW macrophages 50 μM [2]: 100 ± 6%
Cell viability (%) Mouse microglia 50 μM [3]: 82 ± 10%
Cell viability (%) HEPG2 120 μM [4]: 100 ± 8%

C[C@H]1N=C(c2ccccc2F)c2cc(Cl)ccc2-n2cnc(C(=O)O)c21 [GL-III-54]
inhibition at 10 µM [1]: 31 ± 9%
Cell viability (%) RAW macrophages 50 μM [2]: 99 ± 12%
Cell viability (%) Mouse microglia 50 μM [3]: 82 ± 6%
Cell viability (%) HEPG2 120 μM [4]: 93 ± 4%

Cc1noc(-c2ncn3c2[C@@H](C)N=C(c2ccccc2F)c2cc(Br)ccc2-3)n1 [GL-III-60, (R)-5-(8-Bromo-6-(2-fluorophenyl)-4-methyl-4H-benzo[f]imidazo[1,5-a][1,4]diazepin-3-yl)-3-methyl-1,2,4-oxadiazole]
inhibition at 10 µM [1]: 55 ± 8%
inhibition at 50 µM [1]: 68 ± 8%
Cell viability (%) RAW macrophages 50 μM [2]: 86 ± 12%
Cell viability (%) Mouse microglia 50 μM [3]: 100 ± 9%
Cell viability (%) HEPG2 120 μM [4]: 100 ± 11%

Cc1noc(-c2ncn3c2[C@@H](C)N=C(c2ccccc2F)c2cc(C4CC4)ccc2-3)n1 [GL-III-63, (R)-5-(8-Cyclopropyl-6-(2-fluorophenyl)-4-methyl-4H-benzo[f]imidazo[1,5-a][1,4]diazepin-3-yl)-3-methyl-1,2,4-oxadiazole]
inhibition at 10 µM [1]: 25 ± 4%
inhibition at 50 µM [1]: 89 ± 12%
Cell viability (%) RAW macrophages 50 μM [2]: 87 ± 15%
Cell viability (%) Mouse microglia 50 μM [3]: 100 ± 8%
Cell viability (%) HEPG2 120 μM [4]: 16 ± 6%
toxicity at 120 μM (in words) [4]: toxic

C#Cc1ccc2c(c1)C(c1ccccc1F)=N[C@H](C)c1c(C(=O)NC(C)C)ncn1-2 [GL-III-66]
inhibition at 10 µM [1]: 13 ± 2%
Cell viability (%) RAW macrophages 50 μM [2]: 100 ± 9%
Cell viability (%) Mouse microglia 50 μM [3]: 85 ± 15%
Cell viability (%) HEPG2 120 μM [4]: 86 ± 8%

CCNC(=O)c1ncn2c1[C@@H](C)N=C(c1ccccc1F)c1cc(C3CC3)ccc1-2 [GL-III-68]
inhibition at 10 µM [1]: 24 ± 5%
Cell viability (%) RAW macrophages 50 μM [2]: 100 ± 8%
Cell viability (%) Mouse microglia 50 μM [3]: 83 ± 3%
Cell viability (%) HEPG2 120 μM [4]: 83 ± 2%

C[C@H]1N=C(c2ccccc2F)c2cc(Br)ccc2-n2cnc(C(=O)N(C)C)c21 [GL-III-69]
inhibition at 10 µM [1]: 37 ± 6%
Cell viability (%) RAW macrophages 50 μM [2]: 98 ± 10%
Cell viability (%) Mouse microglia 50 μM [3]: 87 ± 6%
Cell viability (%) HEPG2 120 μM [4]: 88 ± 5%

C[C@H]1N=C(c2ccccc2F)c2cc(C3CC3)ccc2-n2cnc(C(=O)N(C)C)c21 [GL-III-70]
inhibition at 10 µM [1]: 32 ± 4%
Cell viability (%) RAW macrophages 50 μM [2]: 100 ± 2%
Cell viability (%) Mouse microglia 50 μM [3]: 86 ± 2%
Cell viability (%) HEPG2 120 μM [4]: 100 ± 5%

C#Cc1ccc2c(c1)C(c1ccccc1F)=N[C@H](C)c1c(-c3cnco3)ncn1-2 [GL-III-73]
inhibition at 10 µM [1]: 40 ± 3%
Cell viability (%) RAW macrophages 50 μM [2]: 100 ± 4%
Cell viability (%) Mouse microglia 50 μM [3]: 80 ± 9%
Cell viability (%) HEPG2 120 μM [4]: 100 ± 9%

C[C@@H]1N=C(c2ccccc2F)c2cc(Br)ccc2-n2cnc(-c3cnco3)c21 [GL-III-76]
inhibition at 10 µM [1]: 34 ± 1%
Cell viability (%) RAW macrophages 50 μM [2]: 100 ± 5%
Cell viability (%) Mouse microglia 50 μM [3]: 80 ± 2%
Cell viability (%) HEPG2 120 μM [4]: 90 ± 6%

C#Cc1ccc2c(c1)C(c1ccccc1F)=N[C@@H](C)c1c(-c3cnco3)ncn1-2 [GL-III-78]
inhibition at 10 µM [1]: 39 ± 5%
Cell viability (%) RAW macrophages 50 μM [2]: 97 ± 2%
Cell viability (%) Mouse microglia 50 μM [3]: 79 ± 6%
Cell viability (%) HEPG2 120 μM [4]: 100 ± 15%

CCc1noc(-c2ncn3c2[C@@H](C)N=C(c2ccccc2F)c2cc(C4CC4)ccc2-3)n1 [GL-IV-03, (R)-5-(8-Cyclopropyl-6-(2-fluorophenyl)-4-methyl-4H-benzo[f]imidazo[1,5-a][1,4]diazepin-3-yl)-3-ethyl-1,2,4-oxadiazole]
inhibition at 10 µM [1]: 90%
Cell viability (%) RAW macrophages 50 μM [2]: 97 ± 7%
toxicity at 50 μM (in words) [2]: no significant toxicity
Cell viability (%) Mouse microglia 50 μM [3]: 100 ± 5%
toxicity at 50 μM (in words) [3]: no significant toxicity
Cell viability (%) HEPG2 120 μM [4]: 39 ± 5%
toxicity at 120 μM (in words) [4]: to a lesser degree
ability of mice to balance on a rotating rod for three minutes ([5]; intraperitoneal, 10 and 40 mg/kg): did not influence the ability of mice to balance
sensorimotor deficits on the rotarod [5]: did not cause any sensorimotor deficits

C#Cc1ccc2c(c1)C(c1ccccc1F)=N[C@H](C)c1c(C(=O)NC)ncn1-2 [MP-III-022]
inhibition at 10 µM [1]: 36 ± 6%
inhibition at 50 µM [1]: 60 ± 12%
Cell viability (%) RAW macrophages 50 μM [2]: 100 ± 11%
Cell viability (%) Mouse microglia 50 μM [3]: 86 ± 2%
Cell viability (%) HEPG2 120 μM [4]: 94 ± 7%

C#Cc1ccc2c(c1)C(c1ccccc1F)=N[C@H](C)c1c(-c3nc(C)no3)ncn1-2 [MP-IV-004]
inhibition at 10 µM [1]: 34 ± 5%
inhibition at 50 µM [1]: 60 ± 6%
Cell viability (%) RAW macrophages 50 μM [2]: 83 ± 12%
Cell viability (%) Mouse microglia 50 μM [3]: 100 ± 5%
Cell viability (%) HEPG2 120 μM [4]: 100 ± 4%

C#Cc1ccc2c(c1)C(c1ccccc1F)=N[C@H](C)c1c(-c3nc(C(C)C)no3)ncn1-2 [MP-IV-010, (R)-5-(8-ethynyl-6-(2-fluorophenyl)-4-methyl-4H-benzo[f]imidazo[1,5-a][1,4]diazepin-3-yl)-3-isopropyl-1,2,4-oxadiazole]
inhibition at 10 µM [1]: 66 ± 13%
inhibition at 50 µM [1]: 96 ± 13%
NO production of activated microglia (in words) ([1]; dexamethasone 100 nM, GABA 1 μM, MP-IV-010 50 μM, GL-II-33 in the library screen): significant reduction
Cell viability (%) RAW macrophages 50 μM [2]: 81 ± 10%
toxicity at 50 μM (in words) [2]: no significant toxicity
Cell viability (%) Mouse microglia 50 μM [3]: 91 ± 10%
toxicity at 50 μM (in words) [3]: no significant toxicity
Cell viability (%) HEPG2 120 μM [4]: 45 ± 7%
toxicity at 120 μM (in words) [4]: to a lesser degree
Percent Competition 5-HT2C [6]: −2%
Percent Competition DAT [7]: 14%
Percent Competition GABAA [8]: −8%
Percent Competition Calcium Channel [9]: 15%
Percent Competition Beta2 [10]: 20%
Percent Competition M4 [11]: 8%
Percent Competition Alpha1D [12]: 9%
sensorimotor deficits on the rotarod [5]: did not cause any sensorimotor deficits
